Test results taken from patent publication US20230391758A1, “MODIFIED BENZOFURAN-CARBOXAMIDES AS GLUCOSYLCERAMIDE SYNTHASE INHIBITORS” (MERCK SHARP & DOHME CORP., priority 2020, published 2023).

Target: GCS enzyme (glucosylceramide synthase) contained within Golgi preparations isolated from human A375 malignant melanoma skin cells (Homo sapiens (Human), UniProt Q16739)
Assay: UDP-Glo glucosylceramide synthase biochemical assay
Conditions: 1.5 μg crude golgi preparation from A375 cells; C6 ceramide and UDP-glucose at 2×Km; 20 h incubation at room temperature; UDP detected by luminescence
Text: UDP-Glo™ Glucosylceramide Synthase Biochemical Assay
A UDP-Glo™ glucosylceramide synthase biochemical assay was utilized to evaluate the effect of test compounds on the activity of endogenous levels of GCS enzyme contained within Golgi preparations isolated from human A375 malignant melanoma skin cells. The UDP-Glo™ glucosylceramide synthase assay uses UDP-Glucose as a nucleotide-glycosyl donor and ceramide as substrate acceptor molecules. In the reaction, glucosylceramide synthase (GCS) transfers glucose from UDP-Glucose to ceramide. Glucosylceramide and UDP are released as products.
Using Promega's UDP-Glo™ Glycosyltransferase assay kit (Promega Corporation, Madison, WI, USA (Promega)), GCS activity was indirectly measured by detecting the amount of UDP produced. An aliquot of GCS enzyme (1.5 μg crude golgi preparation, total protein) and titrated test compound were aliquoted to each well and incubated for 30 minutes at room temperature. Substrate mixture was prepared by mixing C6 ceramide (Avanti Polar Lipids, Alabaster, AL USA (Avanti)) (micelles prepared at 0.6 mM in 0.6 mM DOPC) and UDP-glucose (20 μ.M; Promega), at concentrations equivalent to 2×Km, in assay buffer (25 mM HEPES (pH 7.5), 50 mM KCl, 5 mM MgCl2). An equivalent volume of substrate mixture was then added to each well. Following a 20 h incubation at room temperature to allow for GCS turnover of substrate, an equal volume of UDP detection reagent (Promega) was added to each well and incubated for an additional 75 minutes at room temperature to simultaneously convert the accumulated UDP product into ATP and generate light in a luciferase reaction. The generated light was detected using a luminometer. […] luminescence values (RLUs) were normalized to mean “min” and “max” effects, as determined on each plate. “Min” was defined as the mean of the values of the wells treated with vehicle (DMSO) and which represent 0% inhibition; “max” was defined as the mean of the values of the wells treated with a reference inhibitor and which represent the 100% effect. Values for % Emax and EC50 were determined by best-fitting the normalized data to a curve in Activity Base along a four-parameter logistic nonlinear regression (4PL) model (based on the Levenberg-Marquardt algorithm and defined by the equation below): […]
where: n is 4PMin (bottom of the curve); m is 4PMax (top of the curve); i is IP (inflection point of curve); and p is slope. See Levenberg, K., “A Method for the Solution of Certain Problems in Least Squares”, Quart. Appl. Math. 2, (1944), pp 164-168 and Marquardt, D., “An Algorithm for Least Squares Estimation on Nonlinear Parameters”, SIAM J. Appl. Math. 11, (1963) pp 431-441.

Sequence of GCS enzyme (glucosylceramide synthase) contained within Golgi preparations isolated from human A375 malignant melanoma skin cells (Q16739 whole entry): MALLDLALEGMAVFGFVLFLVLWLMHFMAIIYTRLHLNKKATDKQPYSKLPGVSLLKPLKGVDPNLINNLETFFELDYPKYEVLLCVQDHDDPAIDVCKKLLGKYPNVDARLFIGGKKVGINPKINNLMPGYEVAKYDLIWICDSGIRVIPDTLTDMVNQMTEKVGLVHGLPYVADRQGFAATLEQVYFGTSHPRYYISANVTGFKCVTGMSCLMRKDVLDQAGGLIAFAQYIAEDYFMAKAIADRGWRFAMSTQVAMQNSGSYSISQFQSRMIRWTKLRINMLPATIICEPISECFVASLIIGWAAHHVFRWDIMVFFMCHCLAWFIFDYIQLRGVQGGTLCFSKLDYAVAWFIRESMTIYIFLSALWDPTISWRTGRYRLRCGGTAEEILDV

| EC50 [nM] | Structure (SMILES) |
| --- | --- |
| 0.17 | COc1ccc(C#N)cc1-c1cc(Cl)cc2cc(C(=O)N[C@@H]3CC[C@H](O)C3)oc12 [Compound 5, 5-chloro-7-(5-cyano-2-methoxy-phenyl)-N-[(1R,3S)-3-hydroxycyclopentyl] benzofuran-2-carboxamide] |
| 0.87 | O=C(NC12CCC(O)(CC1)C2)c1cc2cccc(-c3cc(Cl)cnc3OC(F)F)c2o1 [Compound 6, 7-[5-chloro-2-(difluoromethoxy)-3-pyridyl]-N-(4-hydroxynorbornan-1-yl)benzofuran-2-carboxamide] |
| 0.99 | O=C(Nc1cccnc1)c1cc2cccc(-c3ccccc3OCC(F)(F)F)c2o1 [Compound 7, N-(3-pyridyl)-7-[2-(2,2,2-trifluoroethoxy)phenyl] benzofuran-2-carboxamide] |
| 1.1 | COc1ncc(Cl)cc1-c1cccc2cc(C(=O)NC34CCC(O)(CC3)C4)oc12 [Compound 8, 7-(5-chloro-2-methoxy-3-pyridyl)-N-(4-hydroxynorbornan-1-yl)benzofuran-2-carboxamide] |
| 7.1 | O=C(NC1CCC(O)CC1F)c1cc2cccc(-c3ccccc3OCC(F)(F)F)c2o1 (centres unmarked) [Compound 11, N-(2-fluoro-4-hydroxy-cyclohexyl)-7-[2-(2,2,2-trifluoroethoxy)phenyl] benzofuran-2-carboxamide] |
| 21 | Cc1cccc(NC(=O)c2cc3cccc(-c4c(C)nn(C)c4C)c3o2)n1 [Compound 12, N-(6-methyl-2-pyridyl)-7-(1,3,5-trimethylpyrazol-4-yl)benzofuran-2-carboxamide] |
| 0.89 | O=C(NC12CCC(CO)(CC1)CC2)c1cc2cc(F)cc(-c3ccccc3OCC(F)(F)F)c2o1 [Compound 17, 5-fluoro-N-[4-(hydroxymethyl)-1-bicyclo[2.2.2]octanyl]-7-[2-(2,2,2-trifluoroethoxy)phenyl] benzofuran-2-carboxamide] |
| 0.26 | COc1ccc(C#N)cc1-c1cccc2cc(C(=O)N[C@@H]3CC[C@H](O)C3)oc12 [Compound 19, 7-(5-cyano-2-methoxyphenyl)-N-((1R,3S)-3-hydroxycyclopentyl)benzofuran-2-carboxamide] |
| 0.023 | O=C(Nc1ccc2cnccc2n1)c1cc2cccc(-c3ccccc3OCC(F)(F)F)c2o1 [Compound 22, N-(1,6-naphthyridin-2-yl)-7-[2-(2,2,2-trifluoroethoxy)phenyl] benzofuran-2-carboxamide] |
| 0.044 | CC(C)Oc1ccc(C#N)cc1-c1cc(Cl)cc2cc(C(=O)N[C@H]3C[C@@H](O)C3)oc12 [Compound 24, Cis-5-chloro-7-(5-cyano-2-isopropoxy-phenyl)-N-(3-hydroxycyclobutyl) benzofuran-2-carboxamide] |
| 0.047 | N#Cc1ccc(Cl)c(-c2cccc3cc(C(=O)N[C@@H]4CC[C@H](O)C4)oc23)c1 [Compound 25, 7-(2-chloro-5-cyano-phenyl)-N-[(1R,3S)-3-hydroxycyclopentyl] benzofuran-2-carboxamide] |
| 0.1 | CC(C)Oc1ccc(C#N)cc1-c1cc(F)cc2cc(C(=O)N[C@H]3C[C@@H](O)C3)oc12 [Compound 26, Cis-7-(5-cyano-2-isopropoxy-phenyl)-5-fluoro-N-(3-hydroxycyclobutyl) benzofuran-2-carboxamide] |
| 0.24 | C[C@]1(NC(=O)c2cc3cc(F)cc(-c4ccccc4OCC(F)(F)F)c3o2)CC[C@H](O)CC1 [Compound 27, Cis or trans-5-fluoro-N-(4-hydroxy-1-methyl-cyclohexyl)-7-[2-(2,2,2-trifluoroethoxy)phenyl] benzofuran-2-carboxamide] |
| 0.6 | COc1ccc(Cl)cc1-c1cc(F)cc2cc(C(=O)N[C@H]3C[C@@H](CO)C3)oc12 [Compound 28, Cis-7-(5-chloro-2-methoxy-phenyl)-5-fluoro-N-[3-(hydroxymethyl)cyclobutyl]be nzofuran-2-carboxamide] |
| 0.82 | CC(C)Oc1ccc(C#N)cc1-c1cc(F)cc2cc(C(=O)NC(C)(C)CO)oc12 [Compound 29, 7-(5-cyano-2-isopropoxy-phenyl)-5-fluoro-N-(2-hydroxy-1,1-dimethyl-ethyl)benzofuran-2-carboxamide] |
| 3.4 | COc1ccc(F)c(F)c1-c1cccc2cc(C(=O)N[C@@H]3CC[C@H](O)C3)oc12 [Compound 30, 7-(2,3-difluoro-6-methoxy-phenyl)-N-[(1R,3S)-3-hydroxycyclopentyl] benzofuran-2-carboxamide] |
| 4.1 | COc1cc(-c2ccccc2OCC(F)(F)F)c2oc(C(=O)NC3CCC(CO)CC3)cc2c1 (centres unmarked) [Compound 31, N-[4-(hydroxymethyl)cyclohexyl]-5-methoxy-7-[2-(2,2,2-trifluoroethoxy)phenyl] benzofuran-2-carboxamide] |
| 5 | N#Cc1ccc(F)c(-c2cccc3cc(C(=O)N[C@@H]4CC[C@H](O)C4)oc23)c1 [Compound 32, 7-(5-cyano-2-fluoro-phenyl)-N-[(1R,3S)-3-hydroxycyclopentyl] benzofuran-2-carboxamide] |
| 6.5 | CCOc1ccc(F)cc1-c1cccc2cc(C(=O)N[C@@H]3CC[C@H](O)C3)oc12 [Compound 33, 7-(2-ethoxy-5-fluoro-phenyl)-N-[(1R,3S)-3-hydroxycyclopentyl] benzofuran-2-carboxamide] |
| 34 | O=C(N[C@H]1CC[C@H](O)CC1)c1cc2cccc(-c3ccccc3OCC(F)(F)F)c2o1 [Compound 34, Trans-N-(4-hydroxycyclohexyl)-7-[2-(2,2,2-trifluoroethoxy)phenyl] benzofuran-2-carboxamide] |
| 94 | COCCOc1ccccc1-c1cccc2cc(C(=O)Nc3cccnc3)oc12 [Compound 35, 7-[2-(2-methoxyethoxy)phenyl]-N-(3-pyridyl)benzofuran-2-carboxamide] |
| 0.79 | COc1ncc(C#N)cc1-c1cccc2cc(C(=O)NC34CCC(O)(CC3)C4)oc12 [Compound 38, 7-(5-cyano-2-methoxypyridin-3-yl)-N-(4-hydroxybicyclo[2.2.1]heptan-1-yl)benzofuran-2-carboxamide] |

| Structure (SMILES) | EC50 [nM] |
| --- | --- |
| CCCCOc1ccccc1-c1cccc2cc(C(=O)NC(C)(C)CO)oc12 [Compound 13, 7-(2-butoxyphenyl)-N-(2-hydroxy-1,1-dimethyl-ethyl)benzofuran-2-carboxamide] | 28 |
